# Assay results: patent US20210169903A1, “PHARMACEUTICAL COMPOSITIONS AND METHODS” (Tyme, Inc., priority 2019, published 2021)
# System: established subcutaneous CT26 murine colon carcinoma
# Assay: Anti-tumor activity of components of the transdermal formulation, intratumoral, tumor volume (Example 3)
# Assay type: in vivo, female Balb/c mice
# Design: TES Group Median / DT Group Median / TGD: unit not given here
# Settings: 50 μL intratumorally daily Day 11-17; for TGD: tumor growth delay versus Vehicle (0.0)
# Method: A study is conducted to evaluate the anti-tumor activity of the components of the transdermal formulation intratumorally against established subcutaneous CT26 murine colon carcinoma in female Balb/c mice.
# Vehicle control is saline solution. 3-surfactant mixture is a mixture of Nonaethylene glycol monododecyl ether, 1-Methyl-2-pyrrolidinone, and Linoleic Acid.
# Tumor cells are implanted subcutaneously (Day 0). Once enrollment criteria are achieved, animals are distributed into treatment groups such that the mean tumor burden in each group is within 10% of the overall mean. Mice are dosed individually by body weight (50 μL fixed/injection intratumorally) on the day of treatment as described above. Animals are dose daily for 7 days beginning on Day 11 and ending on Day 17. Animals are held for tumor growth delay endpoint/tumor growth inhibition endpoint and complete regression/partial regression/tumor free survivor determination.
# [1] = 2nd time-point column (day not given)
# [2] = 4th time-point column (day not given)
# [3] = 5th time-point column (day not given)
# [4] = 6th time-point column (day not given)
# [5] = 7th time-point column (day not given)
smiles,measurement,setting,value
CCCCC/C=C\C/C=C\CCCCCCCC(=O)O [Linoleic Acid],Mean Tumor Volume,[1],283 mm^3
same,Median Tumor Volume,[1],270 mm^3
same,Mean Tumor Volume,3rd time-point (day not given),481 mm^3
same,Median Tumor Volume,3rd time-point (day not given),411 mm^3
same,Mean Tumor Volume,[2],777 mm^3
same,Median Tumor Volume,[2],700 mm^3
same,Mean Tumor Volume,[3],1291 mm^3
same,Median Tumor Volume,[3],1030 mm^3
same,Mean Tumor Volume,[4],1118 mm^3
same,Median Tumor Volume,[4],1152 mm^3
same,Mean Tumor Volume,[5],2035 mm^3
same,Median Tumor Volume,[5],2250 mm^3
same,DT Group Median,,3.5
same,TES Group Median,,18.7
same,Mean Tumor Volume,day not given,132 mm^3
same,Median Tumor Volume,day not given,138 mm^3
same,TGD,,0.6
"CN1CCCC1=O [1-Methyl-2-pyrrolidinone anhydrous, 1-Methyl-2-pyrrolidinone]",Mean Tumor Volume,[1],278 mm^3
same,Median Tumor Volume,[1],295 mm^3
same,Mean Tumor Volume,3rd time-point (day not given),428 mm^3
same,Median Tumor Volume,3rd time-point (day not given),426 mm^3
same,Mean Tumor Volume,[2],688 mm^3
same,Median Tumor Volume,[2],624 mm^3
same,Mean Tumor Volume,[3],1008 mm^3
same,Median Tumor Volume,[3],918 mm^3
same,Mean Tumor Volume,[4],1216 mm^3
same,Median Tumor Volume,[4],1183 mm^3
same,Mean Tumor Volume,[5],1910 mm^3
same,Median Tumor Volume,[5],1812 mm^3
same,DT Group Median,,4.0
same,TES Group Median,,18.8
same,Mean Tumor Volume,day not given,134 mm^3
same,Median Tumor Volume,day not given,141 mm^3
same,TGD,,0.8
CCCCCCCCCCCCOCCOCCOCCOCCOCCOCCOCCOCCOCCO [Nonaethylene glycol monododecyl ether],Mean Tumor Volume,[1],236 mm^3
same,Median Tumor Volume,[1],246 mm^3
same,Mean Tumor Volume,3rd time-point (day not given),416 mm^3
same,Median Tumor Volume,3rd time-point (day not given),368 mm^3
same,Mean Tumor Volume,[2],761 mm^3
same,Median Tumor Volume,[2],819 mm^3
same,Mean Tumor Volume,[3],996 mm^3
same,Median Tumor Volume,[3],988 mm^3
same,Mean Tumor Volume,[4],1364 mm^3
same,Median Tumor Volume,[4],1311 mm^3
same,Mean Tumor Volume,[5],2017 mm^3
same,Median Tumor Volume,[5],2009 mm^3
same,DT Group Median,,3.7
same,TES Group Median,,17.7
same,Mean Tumor Volume,day not given,126 mm^3
same,Median Tumor Volume,day not given,125 mm^3
same,TGD,,−0.4
